The values below come from article PMC7527219 (Science Advances, 2020).

Entries after “also recorded” stand apart in the source; their conditions may differ. Peptide text beside a SMILES is read from it.

Broadly, the stoichiometry N is the number of molecules, sites or subunits per partner or assembly.

For series [1] the following is noted: b7: ref [9], [10]; b55: ref [10]; cited from earlier work.
Series [2] has as its target PmtCD PSM transporter (C2D2 heterotetramer) (S. aureus). Description: MST.

`CSCC[C@H](NC=O)C(=O)N[C@@H](CCC(=O)O)C(=O)N[C@@H](C)C(=O)N[C@H](C(=O)N[C@@H](C)C(=O)N[C@@H](CCCCN)C(=O)N[C@@H](CC(C)C)C(=O)N[C@@H](Cc1ccccc1)C(=O)N[C@@H](CCCCN)C(=O)N[C@@H](Cc1ccccc1)C(=O)N[C@@H](Cc1ccccc1)C(=O)N[C@@H](CCCCN)C(=O)N[C@@H](CC(=O)O)C(=O)N[C@@H](CC(C)C)C(=O)N[C@@H](CC(C)C)C(=O)NCC(=O)N[C@@H](CCCCN)C(=O)N[C@@H](Cc1ccccc1)C(=O)N[C@@H](CC(C)C)C(=O)NCC(=O)N[C@@H](CC(N)=O)C(=O)N[C@@H](CC(N)=O)C(=O)O)C(C)C` [PSMα3F3A] (HELM PEPTIDE1{[O=C[*:2]].M.E.A.V.A.K.L.F.K.F.F.K.D.L.L.G.K.F.L.G.N.N}$$$$V2.0): in series [1], the “cytotoxicity (in words)” value is reported as “cytotoxic; also recorded: maintains cytotoxicity”.

Consider PSMα3F3A peptide, for which the stoichiometry N in series [2] was more than 2.
